Results taken from ChEMBL document CHEMBL1201861, “Genomics of Drug Sensitity in Cancer screening data, Wellcome Trust Sanger Institute”.

How the values were obtained:
Experiment in all cases: cells
[1] = system: COLO-792; assay type: functional, cell-based, Homo sapiens; details: Homo sapiens, COLO-792
Description: SANGER: Inhibition of human COLO-792 cell growth in a cell viability assay.

[2] = system: COR-L23; assay type: functional, cell-based, Homo sapiens; details: Homo sapiens, COR-L23;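 also: cell viability assay measuring how strongly compounds suppress growth of COR-L23 cells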
Description: SANGER: Inhibition of human COR-L23 cell growth in a cell viability assay.

[3] = system: Calu-3; assay type: functional, cell-based, Homo sapiens; details: Homo sapiens, Calu-3;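 also: growth inhibition of human Calu-3 cells, determined with a cell viability assay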
Description: SANGER: Inhibition of human Calu-3 cell growth in a cell viability assay.

[4] = system: DG-75; assay type: functional, cell-based, Homo sapiens; details: Homo sapiens, DG-75;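 also: growth inhibition of DG-75 cells, read out with a cell viability assay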
Description: SANGER: Inhibition of human DG-75 cell growth in a cell viability assay.

[5] = system: ECC4; assay type: functional, cell-based, Homo sapiens; details: Homo sapiens, ECC4;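 also: growth inhibition of ECC4 cells, read out with a cell viability assay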
Description: SANGER: Inhibition of human ECC4 cell growth in a cell viability assay.

[6] = system: EGI-1; assay type: functional, cell-based, Homo sapiens; details: Homo sapiens, EGI-1;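 also: cell viability readout used to gauge growth inhibition of EGI-1 cells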
Description: SANGER: Inhibition of human EGI-1 cell growth in a cell viability assay.

[7] = system: HCC70; assay type: functional, cell-based, Homo sapiens; details: Homo sapiens, HCC70;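 also: cell viability assay measuring how strongly the compound suppresses proliferation of HCC70 cells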
Description: SANGER: Inhibition of human HCC70 cell growth in a cell viability assay.

[8] = system: HCT-116; assay type: functional, cell-based, Homo sapiens; details: Homo sapiens, HCT-116
Description: SANGER: Inhibition of human HCT-116 cell growth in a cell viability assay.

[9] = system: HEC-1; assay type: functional, cell-based, Homo sapiens; details: Homo sapiens, HEC-1;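 also: growth inhibition of the cell line, read out with a cell viability assay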
Description: SANGER: Inhibition of human HEC-1 cell growth in a cell viability assay.

[10] = system: HuCCT-1; assay type: functional, cell-based, Homo sapiens, HuCCT1; details: Homo sapiens, HuCCT-1;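 also: growth inhibition of HuCCT-1 cells, read out by a cell viability assay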
Description: SANGER: Inhibition of human HuCCT1 cell growth in a cell viability assay.

[11] = system: JIYOYE; assay type: functional, cell-based, Homo sapiens; details: Homo sapiens, JIYOYE
Description: SANGER: Inhibition of human JiyoyeP-2003 cell growth in a cell viability assay.

[12] = system: MDA-MB-134-VI; assay type: functional, cell-based, Homo sapiens; details: Homo sapiens, MDA-MB-134-VI
Description: SANGER: Inhibition of human MDA-MB-134-VI cell growth in a cell viability assay.

[13] = system: MEL-JUSO; assay type: functional, cell-based, Homo sapiens; details: Homo sapiens, MEL-JUSO;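 also: growth inhibition of human MEL-JUSO cells, read out with a cell viability assay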
Description: SANGER: Inhibition of human MEL-JUSO cell growth in a cell viability assay.

[14] = system: MHH-ES-1; assay type: functional, cell-based, Homo sapiens; details: Homo sapiens, MHH-ES-1;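 also: cell growth inhibition measured by a cell viability assay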
Description: SANGER: Inhibition of human MHH-ES-1 cell growth in a cell viability assay.

[15] = system: MONO-MAC-6; assay type: functional, cell-based, Homo sapiens; details: Homo sapiens, MONO-MAC-6;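 also: cell viability assay measuring growth inhibition of human MONO-MAC-6 cells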
Description: SANGER: Inhibition of human MONO-MAC-6 cell growth in a cell viability assay.

[16] = system: NALM-6; assay type: functional, cell-based, Homo sapiens; details: Homo sapiens, NALM-6;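 also: growth inhibition of NALM-6 cells, read out with a cell viability assay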
Description: SANGER: Inhibition of human NALM-6 cell growth in a cell viability assay.

[17] = system: NB1; assay type: functional, cell-based, Homo sapiens; details: Homo sapiens, NB1;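 also: reduction of NB1 cell proliferation, read out with a viability assay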
Description: SANGER: Inhibition of human NB1 cell growth in a cell viability assay.

[18] = system: NCI-H1693; assay type: functional, cell-based, Homo sapiens; details: Homo sapiens, NCI-H1693;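 also: growth inhibition of the human cell line, read out with a cell viability assay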
Description: SANGER: Inhibition of human NCI-H1693 cell growth in a cell viability assay.

[19] = system: NCI-H1694; assay type: functional, cell-based, Homo sapiens; details: Homo sapiens, NCI-H1694;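 also: cell viability assay measuring inhibition of growth in human NCI-H1694 cells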
Description: SANGER: Inhibition of human NCI-H1694 cell growth in a cell viability assay.

[20] = system: NCI-H1755; assay type: functional, cell-based, Homo sapiens; details: Homo sapiens, NCI-H1755;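 also: cell viability readout used to measure growth inhibition of NCI-H1755 cells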
Description: SANGER: Inhibition of human NCI-H1755 cell growth in a cell viability assay.

[21] = system: NCI-H1882; assay type: functional, cell-based, Homo sapiens; details: Homo sapiens, NCI-H1882;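 also: growth inhibition of the cell line, determined with a viability assay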
Description: SANGER: Inhibition of human NCI-H1882 cell growth in a cell viability assay.

[22] = system: NCI-H2228; assay type: functional, cell-based, Homo sapiens; details: Homo sapiens, NCI-H2228;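 also: growth inhibition of human NCI-H2228 cells, read out by a cell viability assay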
Description: SANGER: Inhibition of human NCI-H2228 cell growth in a cell viability assay.

[23] = system: NCI-H2342; assay type: functional, cell-based, Homo sapiens; details: Homo sapiens, NCI-H2342;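 also: growth inhibition of the cancer cell line, determined with a cell viability assay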
Description: SANGER: Inhibition of human NCI-H2342 cell growth in a cell viability assay.

[24] = system: NCI-H460; assay type: functional, cell-based, Homo sapiens; details: Homo sapiens, NCI-H460;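 also: cell viability assay scoring growth inhibition of human NCI-H460 cells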
Description: SANGER: Inhibition of human NCI-H460 cell growth in a cell viability assay.

[25] = system: NCI-H716; assay type: functional, cell-based, Homo sapiens; details: Homo sapiens, NCI-H716;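 also: growth inhibition of human NCI-H716 cells, measured by a cell viability assay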
Description: SANGER: Inhibition of human NCI-H716 cell growth in a cell viability assay.

[26] = system: OE33; assay type: functional, cell-based, Homo sapiens; details: Homo sapiens, OE33;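 also: growth inhibition of human OE33 cells, measured by a cell viability assay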
Description: SANGER: Inhibition of human OE33 cell growth in a cell viability assay.

[27] = system: P31-FUJ; assay type: functional, cell-based, Homo sapiens; details: Homo sapiens, P31-FUJ;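 also: growth inhibition of P31-FUJ cells, read out with a viability assay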
Description: SANGER: Inhibition of human P31-FUJ cell growth in a cell viability assay.

[28] = system: PA-1; assay type: functional, cell-based, Homo sapiens; details: Homo sapiens, PA-1;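 also: IC50 for suppression of PA-1 cell proliferation, determined with a cell viability read-out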
Description: SANGER: Inhibition of human PA-1 cell growth in a cell viability assay.

[29] = system: RPMI-2650; assay type: functional, cell-based, Homo sapiens; details: Homo sapiens, RPMI-2650
Description: SANGER: Inhibition of human RPMI-2650 cell growth in a cell viability assay.

[30] = system: SIG-M5; assay type: functional, cell-based, Homo sapiens; details: Homo sapiens, SIG-M5;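 also: cell viability assay read-out, measuring how strongly growth of cultured human SIG-M5 cells is inhibited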
Description: SANGER: Inhibition of human SIG-M5 cell growth in a cell viability assay.

[31] = system: SK-N-AS; assay type: functional, cell-based, Homo sapiens; details: Homo sapiens, SK-N-AS;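 also: growth inhibition of human SK-N-AS cells, measured with a cell viability assay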
Description: SANGER: Inhibition of human SK-N-AS cell growth in a cell viability assay.

[32] = system: SW1573; assay type: functional, cell-based, Homo sapiens; details: Homo sapiens, SW1573;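 also: growth inhibition of SW1573 cells, read out with a cell viability assay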
Description: SANGER: Inhibition of human SW1573 cell growth in a cell viability assay.

[33] = system: SW-620; assay type: functional, cell-based, Homo sapiens; details: Homo sapiens, SW-620;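 also: growth inhibition of human SW-620 cells, measured by a cell viability assay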
Description: SANGER: Inhibition of human SW620 cell growth in a cell viability assay.

[34] = system: SW948; assay type: functional, cell-based, Homo sapiens; details: Homo sapiens, SW948;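 also: growth inhibition of SW948 cells, read out with a cell viability assay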
Description: SANGER: Inhibition of human SW948 cell growth in a cell viability assay.

[35] = system: T84; assay type: functional, cell-based, Homo sapiens; details: Homo sapiens, T84;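 also: growth inhibition measured with a cell viability readout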
Description: SANGER: Inhibition of human T84 cell growth in a cell viability assay.

[36] = system: A2058; assay type: functional, cell-based, Homo sapiens; details: Homo sapiens, A2058;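 also: reduction of A2058 cell growth, read out with a viability assay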
Description: SANGER: Inhibition of human A2058 cell growth in a cell viability assay.

[37] = system: AGS; assay type: functional, cell-based, Homo sapiens; details: Homo sapiens, AGS;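 also: growth inhibition of AGS cells, determined with a cell viability assay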
Description: SANGER: Inhibition of human AGS cell growth in a cell viability assay.

[38] = system: BT-20; assay type: functional, cell-based, Homo sapiens; details: Homo sapiens, BT-20;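 also: cell viability assay measuring suppression of growth in human BT-20 cells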
Description: SANGER: Inhibition of human BT-20 cell growth in a cell viability assay.

[39] = system: CAL-39; assay type: functional, cell-based, Homo sapiens; details: Homo sapiens, CAL-39;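 also: cell viability assay measuring growth inhibition of CAL-39 cells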
Description: SANGER: Inhibition of human CAL-39 cell growth in a cell viability assay.

[40] = system: CAL-72; assay type: functional, cell-based, Homo sapiens; details: Homo sapiens, CAL-72;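 also: cell viability assay measuring inhibition of proliferation in the CAL-72 cell line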
Description: SANGER: Inhibition of human CAL-72 cell growth in a cell viability assay.

[41] = system: U2OS; assay type: functional, cell-based, Homo sapiens, U-2-OS; details: Homo sapiens, U2OS;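 also: growth inhibition of human U-2-OS cells, determined with a cell viability assay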
Description: SANGER: Inhibition of human U-2-OS cell growth in a cell viability assay.

[42] = system: U-251; assay type: functional, cell-based, Homo sapiens; details: Homo sapiens, U-251;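 also: growth inhibition of human U-251 cells, read out through a cell viability assay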
Description: SANGER: Inhibition of human U251 cell growth in a cell viability assay.

[43] = system: UMC-11; assay type: functional, cell-based, Homo sapiens; details: Homo sapiens, UMC-11;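 also: growth inhibition of UMC-11 cells, read out with a cell viability assay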
Description: SANGER: Inhibition of human UMC-11 cell growth in a cell viability assay.

[44] = system: YAPC; assay type: functional, cell-based, Homo sapiens; details: Homo sapiens, YAPC;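 also: growth inhibition of YAPC cells, measured with a cell viability assay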
Description: SANGER: Inhibition of human YAPC cell growth in a cell viability assay.

[45] = system: CHL-1; assay type: functional, cell-based, Homo sapiens; details: Homo sapiens, CHL-1;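 also: cell growth inhibition, read out with a cell viability assay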
Description: SANGER: Inhibition of human CHL-1 cell growth in a cell viability assay.

`CCC/C=C/C=C/C(=O)O[C@H]1/C(=C/C(=O)OC)C[C@H]2C[C@H]([C@@H](C)O)OC(=O)C[C@H](O)C[C@@H]3C[C@H](OC(C)=O)C(C)(C)[C@](O)(C[C@@H]4C/C(=C/C(=O)OC)C[C@H](/C=C/C(C)(C)[C@]1(O)O2)O4)O3` [BRYOSTATIN 1] was tested, and the IC50 [1] was > 8 nM, the IC50 [2] was > 8 nM and the IC50 [3] was > 8 nM. For the same compound, the IC50 [4] was > 8 nM, the IC50 [5] was > 8 nM and the IC50 [6] was > 8 nM. For the same compound, the IC50 [7] was > 8 nM, the IC50 [8] was > 8 nM and the IC50 [9] was > 8 nM. For the same compound, the IC50 [10] was > 8 nM, the IC50 [11] was > 8 nM and the IC50 [12] was > 8 nM. For the same compound, the IC50 [13] was > 8 nM, the IC50 [14] was > 8 nM and the IC50 [15] was > 8 nM. For the same compound, the IC50 [16] was > 8 nM, the IC50 [17] was > 8 nM and the IC50 [18] was > 8 nM. For the same compound, the IC50 [19] was > 8 nM, the IC50 [20] was > 8 nM and the IC50 [21] was > 8 nM. The IC50 [22] was > 8 nM, the IC50 [23] was > 8 nM and the IC50 [24] was > 8 nM. The IC50 [25] was > 8 nM, the IC50 [26] was > 8 nM and the IC50 [27] was > 8 nM. The IC50 [28] was > 8 nM, the IC50 [29] was > 8 nM and the IC50 [30] was 1.56 nM. For the same compound, the IC50 [31] was > 8 nM, the IC50 [32] was > 8 nM and the IC50 [33] was > 8 nM. The IC50 [34] was > 8 nM, the IC50 [35] was > 8 nM and the IC50 [36] was > 8 nM. The IC50 [37] was > 8 nM, the IC50 [38] was > 8 nM and the IC50 [39] was > 8 nM. The IC50 [40] was > 8 nM, the IC50 [41] was > 8 nM and the IC50 [42] was > 8 nM. The IC50 [43] was > 8 nM, the IC50 [44] was > 8 nM and the IC50 [45] was > 8 nM.
With `Nc1ccn([C@@H]2O[C@H](CO)[C@@H](O)C2(F)F)c(=O)n1` [GEMCITABINE] the IC50 [1] was > 1020 nM, the IC50 [2] was 14.1 nM and the IC50 [3] was 17.3 nM. For the same compound, the IC50 [4] was > 1020 nM, the IC50 [5] was > 1020 nM and the IC50 [6] was 214 nM. The IC50 [7] was > 1020 nM, the IC50 [8] was 50.8 nM and the IC50 [9] was 124 nM. The IC50 [10] was 20.6 nM, the IC50 [11] was 39.4 nM and the IC50 [12] was > 1020 nM. The IC50 [13] was < 4 nM, the IC50 [14] was < 4 nM and the IC50 [15] was 24.8 nM. For the same compound, the IC50 [16] was < 4 nM, the IC50 [17] was 488 nM and the IC50 [18] was 46.1 nM. For the same compound, the IC50 [19] was 61.3 nM, the IC50 [20] was 718 nM and the IC50 [21] was 82.4 nM. For the same compound, the IC50 [22] was < 4 nM, the IC50 [23] was 7.63 nM and the IC50 [24] was 13.5 nM. The IC50 [25] was > 1020 nM, the IC50 [26] was 61.2 nM and the IC50 [27] was > 1020 nM. The IC50 [28] was 8.99 nM, the IC50 [29] was 17.6 nM and the IC50 [30] was < 4 nM. For the same compound, the IC50 [31] was > 1020 nM, the IC50 [32] was 457 nM and the IC50 [33] was 1.35 nM. The IC50 [34] was > 1020 nM, the IC50 [35] was 16 nM and the IC50 [36] was 32.8 nM. The IC50 [37] was < 4 nM, the IC50 [38] was 182 nM and the IC50 [39] was > 1020 nM. The IC50 [40] was > 1020 nM, the IC50 [41] was > 1020 nM and the IC50 [42] was 22.3 nM. The IC50 [43] was > 1020 nM, the IC50 [44] was > 1020 nM and the IC50 [45] was < 4 nM.
